The target in the assay is T1, human PTH1 receptor (Homo sapiens, UniProt Q03431).
T1 sequence (Q03431 27-593): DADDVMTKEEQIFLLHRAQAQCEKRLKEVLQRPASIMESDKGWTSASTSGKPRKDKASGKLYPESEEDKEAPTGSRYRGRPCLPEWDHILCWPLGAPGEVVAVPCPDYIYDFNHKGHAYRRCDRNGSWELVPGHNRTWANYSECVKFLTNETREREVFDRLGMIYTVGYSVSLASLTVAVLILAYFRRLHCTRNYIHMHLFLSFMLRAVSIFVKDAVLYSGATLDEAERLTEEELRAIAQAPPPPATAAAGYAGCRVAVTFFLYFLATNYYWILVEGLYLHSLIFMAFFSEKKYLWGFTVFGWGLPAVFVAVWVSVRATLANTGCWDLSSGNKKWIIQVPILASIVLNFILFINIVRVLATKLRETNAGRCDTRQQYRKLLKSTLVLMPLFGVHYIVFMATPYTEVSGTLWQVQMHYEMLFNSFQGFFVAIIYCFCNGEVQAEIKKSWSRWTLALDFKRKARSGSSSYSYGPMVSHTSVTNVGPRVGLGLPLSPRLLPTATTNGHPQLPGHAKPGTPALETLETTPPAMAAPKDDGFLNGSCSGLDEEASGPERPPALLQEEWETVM
Put plainly: In vitro cAMP signal activity in HKRK-B7 cells (LLC-PK1 cells overexpressing the human PTH1 receptor). The following applies: HKRK-B7 cells; compound at 1×10^−3 M; cAMP produced as percentage of that produced by hPTH(1-34) at 100 nM. The class given is cell-based.

With `Cc1cc(OC2CCN(C(=O)OC(C)(C)C)CC2)ccc1CCS(=O)(=O)N1CCC2(CC1)N=C(c1cccc(OC(F)(F)F)c1)NC2=O` [Compound 859, 4-(3-methyl-4-{2-[4-oxo-2-(3-trifluoromethoxy-phenyl)-1,3,8-triaza-spiro[4.5]dec-1-ene-8-sulfonyl]-ethyl}-phenoxy)-piperidine-1-carboxylic acid tert-butyl ester], the “cAMP production activity (%)” value is on record as 26%.
Consider `O=C1NC(C2CCCCC2)=NC12CCN(S(=O)(=O)/C=C/c1cc3cc[nH]c3cc1C(F)(F)F)CC2` [Compound 492, 2-cyclohexyl-8-[(E)-2-(6-trifluoromethyl-1H-indol-5-yl)-ethenesulfonyl]-1,3,8-triaza-spiro[4.5]dec-1-en-4-one], for which the “cAMP production activity (%)” value is 37%.
Regarding `Cc1cc(C2=NC3(CCN(S(=O)(=O)/C=C/c4c(C)cc(C(=O)N5CCC(O)(CF)CC5)cc4C)CC3)C(=O)N2)ccc1OC(F)(F)F` [Compound 1258, 8-{(E)-2-[4-(4-fluoromethyl-4-hydroxy-piperidine-1-carbonyl)-2,6-dimethyl-phenyl]-ethenesulfonyl}-2-(3-methyl-4-trifluoromethoxy-phenyl)-1,3,8-triaza-spiro[4.5]dec-1-en-4-one], the “cAMP production activity (%)” value was 116%.
Under `Cc1cc2[nH]c(=O)[nH]c(=O)c2c(C)c1CCS(=O)(=O)N1CCC2(CC1)N=C(C1CCC(C)CC1)NC2=O` (centres unmarked) [Compound 685, 5,7-Dimethyl-6-{2-[2-(4-methyl-cyclohexyl)-4-oxo-1,3,8-triaza-spiro[4.5]dec-1-ene-8-sulfonyl]-ethyl}-1H-quinazoline-2,4-dione] stands 46%.
On to `CON(C)C(=O)c1cc(C)c(CCS(=O)(=O)N2CCC3(CC2)N=C(C2CCC(C)CC2)NC3=O)c(C)c1` (centres unmarked) [Compound 1180, N-methoxy-3,5,N-trimethyl-4-{2-[2-(4-methyl-cyclohexyl)-4-oxo-1,3,8-triaza-spiro[4.5]dec-1-ene-8-sulfonyl]-ethyl}-benzamide], for which the “cAMP production activity (%)” value came to 73%.
As for `Cc1cc(C(=O)N2CCC(O)(CF)CC2)cc(C)c1/C=C/S(=O)(=O)N1CCC2(CC1)N=C(c1ccc(F)c(OCCCC(F)(F)C(F)(F)F)c1)NC2=O` [Compound 1263, 8-{(E)-2-[4-(4-fluoromethyl-4-hydroxy-piperidine-1-carbonyl)-2,6-dimethyl-phenyl]-ethenesulfonyl}-2-[4-fluoro-3-(4,4,5,5,5-pentafluoro-pentyloxy)-phenyl]-1,3,8-triaza-spiro[4.5]dec-1-en-4-one], the figure is 73%; as for `Cc1cc(N(C)C(N)=O)cc(C)c1/C=C/S(=O)(=O)N1CCC2(CC1)N=C(C1CCC(C(F)(F)F)CC1)NC2=O` (centres unmarked) [Compound 471, 1-(3,5-Dimethyl-4-{(E)-2-[4-oxo-2-(4-trifluoromethyl-cyclohexyl)-1,3,8-triaza-spiro[4.5]dec-1-ene-8-sulfonyl]-vinyl}-phenyl)-1-methyl-urea], 111%; as for `Cc1cc(OCC2(C)COC2)ccc1/C=C/S(=O)(=O)N1CCC2(CC1)N=C(C1CCCCC1)NC2=O` [Compound 739, 2-Cyclohexyl-8-{(E)-2-[2-methyl-4-(3-methyl-oxetan-3-ylmethoxy)-phenyl]-ethenesulfonyl}-1,3,8-triaza-spiro[4.5]dec-1-en-4-one], 47%.
As for `CN1CCCc2c(CCS(=O)(=O)N3CCC4(CC3)N=C(C3CCCCC3)NC4=O)cccc21` [Compound 747, 2-cyclohexyl-8-[2-(1-methyl-1,2,3,4-tetrahydro-quinolin-5-yl)-ethanesulfonyl]-1,3,8-triaza-spiro[4.5]dec-1-en-4-one], the “cAMP production activity (%)” value came out at 55%.
As to `Cc1cc(C(=O)N2CCC(O)(CF)CC2)cc(C)c1/C=C/S(=O)(=O)N1CCC2(CC1)N=C(c1ccc(OCC(F)(F)C(F)F)c(Cl)c1)NC2=O` [Compound 1247, 2-[3-chloro-4-(2,2,3,3-tetrafluoro-propoxy)-phenyl]-8-{(E)-2-[4-(4-fluoromethyl-4-hydroxy-piperidine-1-carbonyl)-2,6-dimethyl-phenyl]-ethenesulfonyl}-1,3,8-triaza-spiro[4.5]dec-1-en-4-one], the “cAMP production activity (%)” value was determined as 70%.
Take `Cc1cc(C(=O)N(C)C)ccc1CCS(=O)(=O)N1CCC2(CC1)N=C(C1(C(F)(F)F)CCCC1)NC2=O` [Compound 138, 3,N,N-trimethyl-4-{2-[4-oxo-2-(1-trifluoromethyl-cyclopentyl)-1,3,8-triaza-spiro[4.5]dec-1-ene-8-sulfonyl]-ethyl}-benzamide]: the “cAMP production activity (%)” value came out at 49%.
With `COC(=O)Nc1ccc(C)c(CCS(=O)(=O)N2CCC3(CC2)N=C(C2CCCCC2)NC3=O)c1` [Compound 274, {3-[2-(2-cyclohexyl-4-oxo-1,3,8-triaza-spiro[4.5]dec-1-ene-8-sulfonyl)-ethyl]-4-methyl-phenyl}-carbamic acid methyl ester], the “cAMP production activity (%)” value is 74%.
With `Cc1cc(C(=O)N2CCC(O)(CF)CC2)cc(C)c1/C=C/S(=O)(=O)N1CCC2(CC1)N=C(c1ccc(OCCCC(F)(F)F)c(C(F)(F)F)c1)NC2=O` [Compound 1250, 8-{(E)-2-[4-(4-fluoromethyl-4-hydroxy-piperidine-1-carbonyl)-2,6-dimethyl-phenyl]-ethenesulfonyl}-2-[4-(4,4,4-trifluoro-butoxy)-3-trifluoromethyl-phenyl]-1,3,8-triaza-spiro[4.5]dec-1-en-4-one], the “cAMP production activity (%)” value amounted to 67%.
Take `Cc1ccccc1C#CS(=O)(=O)N1CCC2(CC1)N=C(C1CCCCC1)NC2=O` [Compound 1376, 2-Cyclohexyl-8-(2-o-tolyl-ethynesulfonyl)-1,3,8-triaza-spiro[4.5]dec-1-en-4-one]: the “cAMP production activity (%)” value turned out to be 42%.
Under `Cc1cc(C(=O)N2CCC(O)(CO)CC2)cc(C)c1/C=C/S(=O)(=O)N1CCC2(CC1)N=C(c1ccc(F)c(C(F)(F)F)c1)NC2=O` [Compound 971, 2-(4-fluoro-3-trifluoromethyl-phenyl)-8-{(E)-2-[4-(4-hydroxy-4-hydroxymethyl-piperidine-1-carbonyl)-2,6-dimethyl-phenyl]-ethenesulfonyl}-1,3,8-triaza-spiro[4.5]dec-1-en-4-one] stands 83%; under `CNc1cc(C)c(/C=C/S(=O)(=O)N2CCC3(CC2)N=C(CCCCCCCCC(F)(F)F)NC3=O)c(C)c1` [Compound 690, 8-[(E)-2-(2,6-Dimethyl-4-methylamino-phenyl)-ethenesulfonyl]-2-(9,9,9-trifluoro-nonyl)-1,3,8-triaza-spiro[4.5]dec-1-en-4-one], 86%; under `Cc1cc(C(=O)N2CCC(C)(O)CC2)cc(C)c1/C=C/S(=O)(=O)N1CCC2(CC1)N=C(c1ccc(OC(F)(F)F)c(OCCCC(F)(F)F)c1)NC2=O` [Compound 1232, 8-{(E)-2-[4-(4-hydroxy-4-methyl-piperidine-1-carbonyl)-2,6-dimethyl-phenyl]-ethenesulfonyl}-2-[3-(4,4,4-trifluoro-butoxy)-4-trifluoromethoxy-phenyl]-1,3,8-triaza-spiro[4.5]dec-1-en-4-one], 106%.
For `Cc1cc2cc(C)c1CCS(=O)(=O)N1CCC3(CC1)N=C(CCCCCCCCCCCCCC(=O)N2C)NC3=O` [Compound 1445], the “cAMP production activity (%)” value was 62%.
With `Cc1cc(C(=O)N2CCC(C)(O)CC2)cc(C)c1/C=C/S(=O)(=O)N1CCC2(CC1)N=C(c1ccc(F)c(OCCCF)c1)NC2=O` [Compound 1215, 2-[4-fluoro-3-(3-fluoro-propoxy)-phenyl]-8-{(E)-2-[4-(4-hydroxy-4-methyl-piperidine-1-carbonyl)-2,6-dimethyl-phenyl}-ethenesulfonyl]-1,3,8-triaza-spiro[4.5]dec-1-en-4-one], the “cAMP production activity (%)” value was 74%.
As for `Cc1cc(C2=NC3(CCN(S(=O)(=O)CCc4c(C)cc(C(=O)N5CCC(C)(O)CC5)cc4C)CC3)C(=O)N2)ccc1C(F)(F)F` [Compound 1235, 8-{2-[4-(4-hydroxy-4-methyl-piperidine-1-carbonyl)-2,6-dimethyl-phenyl]-ethanesulfonyl}-2-(3-methyl-4-trifluoromethyl-phenyl)-1,3,8-triaza-spiro[4.5]dec-1-en-4-one], the figure is 98%.
As for `Cc1cc(N(C)C(=O)OC(C)(C)C)cc(C)c1CCS(=O)(=O)N1CCC2(CC1)N=C(C(C)(F)F)NC2=O` [Compound 1034, (4-{2-[2-(1,1-difluoro-ethyl)-4-oxo-1,3,8-triaza-spiro[4.5]dec-1-ene-8-sulfonyl]-ethyl}-3,5-dimethyl-phenyl)-methyl-carbamic acid tert-butyl ester], the figure is 54%; as for `Cc1cc(N(C)C(N)=O)cc(C)c1CC[S@TB4](=O)(=O)N1CCC2(CC1)N=C(CCCCCCCCCCC(F)F)NC2=O` [Compound 1156, 1-(4-{2-[2-(11,11-difluoro-undecyl)-4-oxo-1,3,8-triaza-spiro[4.5]dec-1-ene-8-sulfonyl]-ethyl}-3,5-dimethyl-phenyl)-1-methyl-urea], 77%.
Under `Cc1cc(C(=O)N2CCN(C)CC2)cc(C)c1CCS(=O)(=O)N1CCC2(CC1)N=C(C1CCC(CCC(F)(F)F)CC1)NC2=O` (centres unmarked) [Compound 995, 8-{2-[2,6-Dimethyl-4-(4-methyl-piperazine-1-carbonyl)-phenyl]-ethanesulfonyl}-2-[4-(3,3,3-trifluoro-propyl)-cyclohexyl]-1,3,8-triaza-spiro[4.5]dec-1-en-4-one] stands 98%.

Values taken from patent US9169254B2, “Spiroimidazolone derivative” (Chugai Seiyaku Kabushiki Kaisha, priority 2009, dated 2015).
